According to patent US10709724B2, “Methods of treating mitochondrial dysfunction” (Ecole Polytechnique Federale de Lausanne (EPFL), priority 2011, dated 2020):

Columns and labels:
C57Bl/6J mice [1] = assay: Long-term NR supplementation of chow or high-fat diet fed mice; assay type: in vivo
Method: Animal Experiments. Male PARP-1^+/+ and PARP-1^−/− mice on a pure C57Bl/6J background (Menissier-de Murcia et al., 1997) were used. Mice were housed separately, had ad libitum access to water and standard rodent chow (10 kcal % of fat, Safe, Augy, France) or to a high calorie, high fat diet (60 kcal % of fat, Research. Diets, New Brunswick, N.J., USA), and were kept under a 12 h dark-light cycle. In other animal experiments, 8 weeks-old male C57Bl/6J mice were purchased from Charles River and powder chow (D12450B) and high fat (D12492) diets were from Research Diets Inc (New Brunswick, N.J., USA). 80 ml of water per kg of powder CD were used to make food pellets. 40 ml of water per kg of powder HFD were used to make food pellets. For NR, NMN and NA supplemented diets, the appropriate amount of these compounds was added to the water used to create the pellets, taking into account the differences in the daily intake of each diet. Mice were housed separately, had ad libitum access to water and food and were kept under a 12 h dark-light cycle. Mice were fed with homemade pellets from 10 weeks of age. To make the pellets, the powder food was mixed with water (vehicle) or with NR. All animal experiments were carried out according to local national and EU ethical guidelines. To monitor body weight, mice were weighed and the food consumption was measured each week on the same day. In case of PJ34 treatment, mice received each 12 h (at 7:00 and 19:00) 10 mg/kg PJ34 by intraperitoneal injection for 5 continuous days. In all studies animals were killed (at 14:00) either after CO2 inhalation or cervical dislocation after 6 h of fasting (starting at 8:00), and tissues were collected and processed as specified below. Oral glucose tolerance test, intraperitoneal insulin tolerance test, free fatty acid (FFA) and triglycerides were determined as described (Lagouge et al., 2006). Plasma insulin and was determined in heparinized plasma samples using specific ELISA kits (Mercodia). Blood samples were collected in heparinized tubes and plasma was isolated after centrifugation. Plasma parameters were measured using a Cobas c111 (Roche Diagnostics). Thermoadaptation was performed as described (Lagouge et al., 2006). We measured O2 consumption, CO2 production, and spontaneous locomotor activity in an open circuit indirect calorimetry system (Sabre systems, Las Vegas, Nev., USA) over 24-48 has described (Dali-Youcef et al., 2007; Lagouge et al., 2006; Watanabe et al., 2006). […] The respiratory quotient was the ratio of CO2 production over O2 consumption. During actimetry, beamline crossings were summarized each 15 minutes. […] Euglycemic-hyperinsulinemic clamps were performed in PARP-1^−/− and ^+/+ male mice (n=4 mice per genotype; age=4 months) exactly as previously described (Feige et al, 2008).
Instruments, total body fat was measured by echoMRI as described (Lagouge et al., 2006; Watanabe et al., 2006). Endurance test was performed as described in (Canto et al., 2009). Intraperitoneal glucose and insulin tolerance tests (IPGTT and IPITT, respectively) were performed as previously described (Feige et al, 2008). The animals were killed after 6 h of fasting by CO2 asphyxiation and tissues were collected. Total body fat content was then examined at autopsy, by weighing the subcutaneous, gonadal, mesenterial, retroperitoneal and BAT associated fat depots. Liver triglyceride was determined after Folch extraction using a commercial triglyceride kit (Roche). Pancreas and plasma insulin content was determined from acidic extracts using a commercial ELISA kit (Mercodia) (Champy et al., 2004).
Histology and Microscopy. Haematoxylin-eosin (HE), Oil Red-O and succinate-dehydrogenase (SDH) stainings were performed on […] tissue sections as described (Lagouge et al., 2006; Picard et al., 2002). Transmission electron microscopy (TEM) investigation was performed on glutaraldehyde-fixed, osmium tetroxyde stained ultrafine sections (Watanabe et al., 2006). […]

C57Bl/6J mice [2] = assay: Hyperinsulinemic-euglycemic clamp in CD and CD-NR mice; assay type: in vivo; details: 4 weeks of treatment
Method: Hyperinsulinemic-euglycemic clamps were performed as described (Lagouge et al., 2006).

PDK4 and UCP-3 promoters = assay: ChIP of PGC-1α promoter occupancy in C2C12 myotubes; assay type: cell-based; details: 1 μM, 48 h
Method: Chromatin Immunoprecipitation (ChIP). ChIP was performed according to (Bai et al., 2007). FLAG-HA-PGC-1 (Rodgers et al., 2005) was introduced by adenoviral transfer into C2C12 myotubes after 48 h of differentiation and cells were cultured for an additional 2 days. […] Thereafter ChIP was performed using anti-FLAG (Sigma) and anti-TNF-R1 (Santa Cruz) as described (Bai et al., 2007). Pelleted DNA was quantified by qPCR using the primers against PDK4 and UCP-3 promoters flanking the nuclear receptor site (Table 3 and 6). The results were normalized for the signal of the respective inputs (vehicle/PJ34-treated) and were expressed as a percentage. The signal of anti-TNF-R1 (non-specific antibody) was subtracted from the anti-FLAG signal (specific) and the specific signal was plotted. Primers for ChIP are summarized in Supplementary Table 3 and 6.

NC(=O)c1ccc[n+]([C@@H]2O[C@H](CO)[C@@H](O)[C@H]2O)c1 [NR, nicotinamide riboside]
fasting insulin levels (C57Bl/6J mice [1]; 16 weeks, 6 hr fast): much lower
thermogenic capacity (body temperature during cold exposure) (C57Bl/6J mice [1]; CD and HFD): enhanced thermogenic capacity
O2 consumption rates on CD (C57Bl/6J mice [1]; CD, NR 400 mg/kg/day): marked tendency to display higher O2 consumption rates
RER changes between feeding and fasting periods (C57Bl/6J mice [1]; CD, NR 400 mg/kg/day): higher amplitude of the changes in RER
body weight on chow diet (C57Bl/6J mice [1]; CD, NR 400 mg/kg/day): no effect
HDL-cholesterol levels (C57Bl/6J mice [1]; HFD): unaffected
HFD-induced increase in LDL cholesterol (C57Bl/6J mice [1]; HFD): partially prevented the increase
cristae of mitochondria in BAT (electron microscopy) (C57Bl/6J mice [1]; HFD): more abundant cristae
size of mitochondria in BAT (electron microscopy) (C57Bl/6J mice [1]; HFD): not being significantly larger
glucose tolerance (intraperitoneal glucose tolerance test) (C57Bl/6J mice [1]; HFD, 10 weeks): slight, albeit not significant, improvement in glucose tolerance
insulin secretion during glucose tolerance test (C57Bl/6J mice [1]; HFD, 10 weeks): robust reduction in insulin secretion
endurance performance on HFD (treadmill) (C57Bl/6J mice [1]; HFD, 12 weeks): significantly accentuated
HFD-induced increase in total cholesterol (C57Bl/6J mice [1]; HFD, 16 weeks, 6 hr fast): partially prevented the increase
O2 consumption rates on HFD (C57Bl/6J mice [1]; HFD, NR 400 mg/kg/day): clearly significant
fat mass (Echo-MRI) (C57Bl/6J mice [1]; HFD, NR 400 mg/kg/day, 8 weeks): reduced fat mass
HFD-induced body weight gain (C57Bl/6J mice [1]; HFD, NR 400 mg/kg/day, 12 weeks): significantly attenuated
activity pattern (C57Bl/6J mice [1]; NR 400 mg/kg/day): did not affect the activity pattern
liver triglycerides, less than vehicle-fed (C57Bl/6J mice [1]; NR 400 mg/kg/day): 40%
weight of the epididymal depot (C57Bl/6J mice [1]; NR 400 mg/kg/day): significant lower weight of the epididymal depot
food intake (C57Bl/6J mice [1]; NR 400 mg/kg/day, especially on HFD): tendency to eat more
endurance performance (C57Bl/6J mice [1]; NR-fed vs vehicle fed): clear tendency to display a better endurance performance
SDH staining of gastrocnemius muscle (C57Bl/6J mice [1]; mouse, in vivo): more intense SDH staining
glucose infusion rate to maintain euglycemia, vs vehicle (C57Bl/6J mice [2]): ~2 fold
insulin-induced muscle glucose uptake (C57Bl/6J mice [2]): very marked increase

CN(C)CC(=O)Nc1ccc2[nH]c(=O)c3ccccc3c2c1 [PJ34]
PGC-1 binding to the UCP3 promoter (PDK4 and UCP-3 promoters): not regulated through the binding of PGC-1 to its promoter
PGC-1α recruitment to the PDK4 promoter (PDK4 and UCP-3 promoters): increased PGC-1α recruitment to target-genes
